Data from patent publication USRE47689E1, “Compounds for treating spinal muscular atrophy” (PTC Therapeutics, Inc., priority 2011, dated 2019).
Read-outs that look alike come from different tables or passages of the source.

How the values were obtained:
[1] = system: SMN2 minigene (full length SMN2 minigene mRNA containing SMN2 exon 7); assay: SMN2 minigene mRNA splicing RT-qPCR assay in cultured cells; format: cell-based, human; details: Homo sapiens, HEK293-H, read-out: EC1.5x for production of full length SMN2 mRNA
How it was run: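 Full-length SMN2 minigene mRNA (exon 7 included), minigene-specific and not endogenous SMN, quantified by RT-qPCR multiplexed with GAPDH in stably transfected HEK293H cells after 24 h compound exposure at 37° C. Abundance from efficiency-corrected Ct, normalized to GAPDH and vehicle; EC1.5x reported as star bins.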

Smn protein = Smn protein assay in cultured cells (SMN HTRF); format: cell-based, human; details: for EC1.5x (concentration giving 1.5-fold Smn protein increase): SMA Type 1 patient fibroblast cells (GM03813), 7-point concentration curve, SMN HTRF, concentration producing 1.5 times Smn protein vs DMSO vehicle control, read-out: EC1.5x for Smn protein expression
How it was run: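 Smn in SMA fibroblast lysates, measured by anti-SMN HTRF after 48 h compound exposure; EC1.5x from fold change over vehicle.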

[2] = HEK293H cells stably transfected with SMN2-A minigene, 24 hours, 7-point concentration curve, 1.5-fold relative to vehicle-treated cells
[3] = SMA patient fibroblast cells, 48 hours, 7-point concentration data, fold increase relative to vehicle control (SMN HTRF)

SMILES | melting point | EC (1.5-fold) [1, 2] | maximum fold (Fold) increase of Smn protein (Smn protein; [3]) | EC1.5x (concentration giving 1.5-fold Smn protein increase) (Smn protein; 48 hours) | EC (1.5-fold) ([1]; 24 h) | maximum fold (Fold) increase of Smn protein (Smn protein)
Cc1cccc2oc(-c3cc4ccc(N5C[C@@H](C)N[C@@H](C)C5)cc4oc3=O)nc12 [Compound 31, 7-[(3R,5S)-3,5-dimethylpiperazin-1-yl]-3-(4-methyl-1,3-benzoxazol-2-yl)-2H-chromen-2-one] | 243 to 245 °C | 3 to 30 µM | * (maximum fold increase of ≤1.2) | – | – | –
COc1ccn2cc(-c3cc4ccc(N5CCN[C@@H](C)C5)cc4oc3=O)nc2c1 [Compound 434, 3-(7-methoxyimidazo[1,2-a]pyridin-2-yl)-7-[(3S)-3-methylpiperazin-1-yl]-2H-chromen-2-one] | 250 to 256 °C | 1 to 3 µM | ** (fold increase between >1.2 and ≤1.35) | – | – | –
Cc1ccc2cc(-c3cc4ccc(N5CCNCC5)cc4oc3=O)cn2n1 [Cpd 641, 3-(2-methylpyrrolo[1,2-b]pyridazin-6-yl)-7-(piperazin-1-yl)-2H-chromen-2-one] | 213 to 216 °C | – | – | – | 0.3 to 1 µM | * (key: *: maximum fold increase of ≤1.2; **: fold increase between >1.2 and ≤1.35; ***: fold increase between >1.35 and ≤1.5; ****: fold increase between >1.5 and ≤1.65; *****: fold increase >1.65)
CCc1cn2cc(-c3cc4ccc(N5CCCNCC5)cc4oc3=O)nc2s1 [Compound 430, 7-(1,4-diazepan-1-yl)-3-(2-ethylimidazo[2,1-b][1,3]thiazol-6-yl)-2H-chromen-2-one] | 185 to 189 °C | 1 to 3 µM | * (maximum fold increase of ≤1.2) | – | – | –
Cc1ccc2nc(-c3cc4ccc(N5CCNCC5)c(F)c4oc3=O)cn2c1 [Compound 156, 8-fluoro-3-(6-methylimidazo[1,2-a]pyridin-2-yl)-7-(piperazin-1-yl)-2H-chromen-2-one] | 313 to 319 °C | 1 to 3 µM | ** (fold increase between >1.2 and ≤1.35) | – | – | –
CN(C)CCN(C)c1ccc2cc(-c3nc4ccccc4s3)c(=O)oc2c1 [Compound 146, 3-(1,3-benzothiazol-2-yl)-7-{[2-(dimethylamino)ethyl](methyl)amino}-2H-chromen-2-one] | 155 to 157 °C | 0.3 to 1 µM | * (maximum fold increase of ≤1.2) | – | – | –
Cc1cc(F)c2nc(-c3cc4ccc(N[C@@H]5CCNC5)cc4oc3=O)cn2c1 [Compound 583, 3-(8-fluoro-6-methylimidazo[1,2-a]pyridin-2-yl)-7-[(3R)-pyrrolidin-3-ylamino]-2H-chromen-2-one] | 231 to 238 °C | 0.3 to 1 µM | ** (fold increase between >1.2 and ≤1.35) | – | – | –
Cc1csc2nc(-c3cc4ccc(N5C[C@@H](C)N[C@@H](C)C5)cc4oc3=O)cn12 [Compound 182, 7-[(3R,5S)-3,5-dimethylpiperazin-1-yl]-3-(3-methylimidazo[2,1-b][1,3]thiazol-6-yl)-2H-chromen-2-one] | 211 to 215 °C | 1 to 3 µM | ** (fold increase between >1.2 and ≤1.35) | – | – | –
O=c1oc2cc(N3CCNCC3)ccc2cc1-c1cccnc1 [Compound 12, 7-(piperazin-1-yl)-3-(pyridin-3-yl)-2H-chromen-2-one] | 170 to 172 °C | – | * (maximum fold increase of ≤1.2) | – | 3 to 30 µM | –
Cc1ccn2nc(-c3cc4ccc(N5C[C@@H](C)N[C@@H](C)C5)cc4oc3=O)cc2c1 [Compound 304, 7-[(3R,5S)-3,5-dimethylpiperazin-1-yl]-3-(5-methylpyrazolo[1,5-a]pyridin-2-yl)-2H-chromen-2-one] | 200 to 202 °C | 0.1 to 0.3 µM | *** (fold increase between >1.35 and ≤1.5) | 1000 to 3000 nM | – | –
O=c1oc2cc(O[C@H]3CCNC3)ccc2cc1-c1nc2ccccc2s1 [Compound 54, 3-(1,3-benzothiazol-2-yl)-7-[(3S)-pyrrolidin-3-yloxy]-2H-chromen-2-one] | 205 to 211 °C | 1 to 3 µM | * (maximum fold increase of ≤1.2) | – | – | –
C[C@H]1CN(c2ccc3cc(-c4cn5cccnc5n4)c(=O)oc3c2)CCN1 [Compound 170, 3-(imidazo[1,2-a]pyrimidin-2-yl)-7-[(3S)-3-methylpiperazin-1-yl]-2H-chromen-2-one] | 282 to 285 °C | 0.3 to 1 µM | ** (fold increase between >1.2 and ≤1.35) | – | – | –
C[C@@H]1CN(c2ccc3cc(-c4cn5ccsc5n4)c(=O)oc3c2)CCN1 [Compound 204, 3-(imidazo[2,1-b][1,3]thiazol-6-yl)-7-[(3R)-3-methylpiperazin-1-yl]-2H-chromen-2-one] | 233 to 237 °C | 0.1 to 0.3 µM | *** (fold increase between >1.35 and ≤1.5) | – | – | –
Cc1ccc2nc(-c3cc4ccc(N5C[C@@H]6C[C@H]5CN6)cc4oc3=O)cn2c1 [Compound 173, 7-[(1S,4S)-2,5-diazabicyclo[2.2.1]hept-2-yl]-3-(6-methylimidazo[1,2-a]pyridin-2-yl)-2H-chromen-2-one] | 212 to 215 °C | 0.3 to 1 µM | ** (fold increase between >1.2 and ≤1.35) | – | – | –
Cc1ccc2nc(-c3cc4ccc(CN5CCC(O)CC5)cc4oc3=O)cn2c1 [Compound 252, 7-[(4-hydroxypiperidin-1-yl)methyl]-3-(6-methylimidazo[1,2-a]pyridin-2-yl)-2H-chromen-2-one] | 261 to 264 °C | 3 to 30 µM | ** (fold increase between >1.2 and ≤1.35) | – | – | –

More lines, main results first:

melting point | SMILES | EC (1.5-fold) [1, 2] | maximum fold (Fold) increase of Smn protein (Smn protein; [3]) | EC1.5x (concentration giving 1.5-fold Smn protein increase) (Smn protein; 48 hours) | EC (1.5-fold) ([1]; 24 h) | maximum fold (Fold) increase of Smn protein (Smn protein)
260 to 264 °C | C[C@@H]1CN(c2ccc3cc(-c4cn(-c5ccccc5)cn4)c(=O)oc3c2)C[C@H](C)N1 [Cpd 452, 7-[(3R,5S)-3,5-dimethylpiperazin-1-yl]-3-(1-phenyl-1H-imidazol-4-yl)-2H-chromen-2-one] | 3 to 30 µM | * (maximum fold increase of ≤1.2) | – | – | –
178 to 190 °C | Cc1cn2cc(-c3cc4ccc(OCCN5CCCCC5)cc4oc3=O)nc2c(C)n1 [Compound 953, 3-(6,8-dimethylimidazo[1,2-a]pyrazin-2-yl)-7-[2-(piperidin-1-yl)ethoxy]-2H-chromen-2-one] | < 0.1 µM | **** (fold increase between >1.5 and ≤1.65) | < 300 nM | – | –
118 to 122 °C | Cc1cn2cc(-c3cc4ccc(N5CCC(N6CCOCC6)C5)cc4oc3=O)cc2c(C)n1 (stereo not shown) [Compound 757, 3-(1,3-dimethylpyrrolo[1,2-a]pyrazin-7-yl)-7-[3-(morpholin-4-yl)pyrrolidin-1-yl]-2H-chromen-2-one] | 0.3 to 1 µM | *** (fold increase between >1.35 and ≤1.5) | 1000 to 3000 nM | – | –
235 to 237 °C | COCCN1CCN(c2ccc3cc(-c4cc5cc(C)nc(C)c5o4)c(=O)oc3c2)CC1 [Compound 799, 3-(5,7-dimethylfuro[2,3-c]pyridin-2-yl)-7-[4-(2-methoxyethyl)piperazin-1-yl]-2H-chromen-2-one] | < 0.1 µM | **** (fold increase between >1.5 and ≤1.65) | < 300 nM | – | –
212 to 215 °C | Cc1nccn2cc(-c3cc4ccc(N5CCN[C@H](C)C5)cc4oc3=O)cc12 [Compound 586, 7-[(3R)-3-methylpiperazin-1-yl]-3-(1-methylpyrrolo[1,2-a]pyrazin-7-yl)-2H-chromen-2-one] | < 0.1 µM | *** (fold increase between >1.35 and ≤1.5) | < 300 nM | – | –
192 to 195 °C | Cc1cn2cc(-c3cc4ccc(N5CCC(N(C)C)CC5)cc4oc3=O)cc2c(C)n1 [Compound 715, 7-[4-(dimethylamino)piperidin-1-yl]-3-(1,3-dimethylpyrrolo[1,2-a]pyrazin-7-yl)-2H-chromen-2-one] | < 0.1 µM | ** (fold increase between >1.2 and ≤1.35) | – | – | –
150 to 152 °C | Cc1cn2cc(-c3cc4ccc(N5CC(CN(C)C)C5)cc4oc3=O)nc2c(C)n1 [Compound 966, 7-{3-[(dimethylamino)methyl]azetidin-1-yl}-3-(6,8-dimethylimidazo[1,2-a]pyrazin-2-yl)-2H-chromen-2-one] | < 0.1 µM | **** (fold increase between >1.5 and ≤1.65) | < 300 nM | – | –
192 to 202 °C | Cc1cn2cc(-c3cc4ccc(N(C)[C@@H]5CCNC5)cc4oc3=O)nc2c(C)n1 [Compound 700, 3-(6,8-dimethylimidazo[1,2-a]pyrazin-2-yl)-7-{methyl[(3R)-pyrrolidin-3-yl]amino}-2H-chromen-2-one] | 0.1 to 0.3 µM | ***** (fold increase >1.65) | < 300 nM | – | –
177 to 180 °C | CC(C)Oc1cccc(-c2cc3ccc(N4CCNCC4)cc3oc2=O)n1 [Cpd 385, 7-(piperazin-1-yl)-3-[6-(propan-2-yloxy)pyridin-2-yl]-2H-chromen-2-one] | 1 to 3 µM | * (maximum fold increase of ≤1.2) | – | – | –
